Consider 23 molecules from PubChem BioAssay (NCI).

What all share (test): NCI tumour cell line growth inhibition, 48 h
The subject of experiment [1] is SF-268 CNS.
In experiment [2] the test system is UACC-257 melanoma.
Experiment [3] relates to U251 CNS.
In experiment [4] the test system is K-562 leukemia.
For experiment [5], the system named is UACC-62 melanoma.
In experiment [6] the test system is NCI-H522 lung.
The subject of experiment [7] is SK-MEL-5 melanoma.
The test system of experiment [8] is HCT-15 colon.
The test system of experiment [9] is CAKI-1 renal.

Molecules are shown by their SMILES.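 All cell lines were grown in 96-well plates and treated with compound for 48 hours. At the GI50, growth is halved. The concentration for full growth arrest is given as TGI.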

For `COc1c(C)cc2c(C(C)C)c(O)c(O)c(C=O)c2c1O`, the TGI in [1] was more than 100 µM; in experiment [2] it was 59.4 µM; in experiment [3], 57.9 µM; in experiment [4] it was 45.4 µM; in experiment [5], 47.5 µM; in [6], 60.4 µM. Moreover, the values for the TGI in [7] and in experiment [8] were 33.1 µM and more than 100 µM, respectively.

Turning to `COc1cc(-c2nccc3cc(OC)c(OC)cc23)ccc1O`, the TGI in experiment [2], in experiment [9], in experiment [3], in experiment [4], in [5] and in [6] was more than 100 µM throughout. Further, the TGI in experiment [7] was more than 100 µM; in experiment [8], 96.1 µM.

Turning to `N#Cc1ccc(Cc2ccccn2)cc1Cl`, the TGI in experiment [1], in [2], in experiment [9], in experiment [3], in experiment [4] and in experiment [5] was more than 100 µM each time. Besides, the TGI in [6] and in [7] was more than 100 µM in each case.

Regarding `CCOC(=O)C(=O)Nc1nc2c(OCC)cccc2s1`, the TGI in experiment [1], in experiment [2], in experiment [9], in experiment [3], in [4] and in experiment [5] was more than 100 µM each time. The TGI in [6], in [7] and in experiment [8] was more than 100 µM in each case.

Regarding `CC(CCC[C@H](C)CO)[C@H]1[C@@H](O)C(O)C2[C@@H]3C[C@@H](O)C4(O)C[C@@H](O)CC[C@]4(C)C3CC[C@@]21C` (stereo partly specified), the TGI in [1], in experiment [2], in experiment [9], in [3], in [4] and in experiment [5] was more than 100 µM each time. Moreover, the TGI in experiment [6], in [7] and in experiment [8] was more than 100 µM throughout.

Regarding `Cc1ccc(-c2nc3ccccc3c(=O)n2NCC2(O)OCC(O)C(O)C2O)cc1` (stereo unspecified), the TGI in experiment [1], in [2], in experiment [9], in experiment [3], in experiment [4] and in experiment [5] was more than 100 µM in each case. For the same molecule, the TGI in experiment [6], in [7] and in [8] was more than 100 µM each time.

With `CC(CC(=O)N1C(=O)C(C)(C)[C@@H](O)[C@H]1CC(C)C(Cl)(Cl)Cl)C(Cl)(Cl)Cl` (stereo partly specified), the TGI in [1], in [2], in [9], in [3], in [4] and in experiment [5] was more than 100 µM throughout. Also, the TGI in experiment [6], in [7] and in experiment [8] was more than 100 µM each time.

With `O=S(=O)(CCN1CCOCC1)Nc1cc(-c2ccc3ncnc(Nc4ccc(F)c(Cl)c4)c3c2)cnc1Cl`, the GI50 in experiment [1] is 0.407 µM; in experiment [2], 0.498 µM; in experiment [3], 0.909 µM; in [4] it was 3.27 µM; in experiment [5], 0.153 µM; in experiment [7], 0.313 µM. Moreover, the GI50 in experiment [8] was 1.23 µM. For the same molecule, the TGI in experiment [1] is 27.4 µM; in experiment [2], 8.12 µM; in experiment [3], 10.5 µM; in [4] it was more than 100 µM; in experiment [5] it was 1.09 µM; in [7] it was 1.58 µM. Further, the TGI in [8] is 28.9 µM.

Consider `C[C@]12CCC(=O)C(OC(=O)c3ccc([N+](=O)[O-])cc3)=C1CCC2=O`, for which the TGI in [1], in [2], in experiment [9], in experiment [3], in experiment [5] and in experiment [6] was more than 100 µM each time. The TGI in experiment [7] and in experiment [8] was more than 100 µM in each case.

Turning to `CO[C@@H]1C=C[C@@]23c4cc5c(cc4CN(C[C@@H]2O)[C@H]3C1)OCO5`, the TGI was more than 100 µM in experiment [1]; more than 100 µM in [2]; 49.1 µM in experiment [9]; 73.1 µM in [3]; more than 100 µM in experiment [4]; 64.2 µM in [5]. Further, the TGI in [6] is 50.7 µM; in [8], more than 100 µM.

Take `CCOC(=O)C(=O)C=P(c1ccccc1)(c1ccccc1)c1ccccc1`: the TGI in experiment [1], in [2], in experiment [9], in experiment [3], in experiment [4] and in experiment [5] was more than 100 µM each time. Moreover, the TGI in [6], in experiment [7] and in [8] was more than 100 µM throughout.

As for `CC(=O)OC(CC1(C)C(C)CCC23COC(=O)C2=CCCC31)c1ccoc1` (stereo unspecified), the TGI in [1] is 36.2 µM; in [2], 72.5 µM; in experiment [3] it was 29.3 µM; in experiment [4], more than 100 µM; in [5] it was 59.9 µM; in experiment [6] it was 35.6 µM. In addition, the TGI turned out to be 42.1 µM in experiment [7] and 56.2 µM in [8].

As for `CCOC(=O)Cn1c2ccccc2c(=O)c2cc(C)c(C)c(C#N)c21`, the TGI in [1], in experiment [2], in [3], in [5] and in experiment [8] was more than 100 µM in each case.

Take `Cc1cccc(-n2c(N)c(-c3nc4ccccc4[nH]3)sc2=S)c1`: the TGI in experiment [1] was more than 100 µM; in experiment [2], 67.1 µM; in [9], 90.5 µM; in experiment [3], 43.2 µM; in experiment [4], more than 100 µM; in experiment [5] it was 78.1 µM. The values for the TGI in [6], in experiment [7] and in experiment [8] were 75.7 µM, 46.7 µM and 62.3 µM, respectively.

Regarding `COC(OC)c1cc2c(cc1C=O)OCO2`, the TGI in experiment [1], in experiment [2], in experiment [9], in [3], in experiment [4] and in [5] was more than 100 µM in each case. In addition, the TGI in experiment [6] and in [7] was more than 100 µM each time.

With `CCC[CH2][Sn]([CH2]CCC)([O]c1cccc2cccnc12)[O]c1cccc2cccnc12`, the GI50 in experiment [1] is 0.203 µM; in experiment [9] it was 0.2 µM; in experiment [3], 0.198 µM; in experiment [4], 0.0973 µM; in experiment [5], 0.193 µM; in experiment [7], 0.192 µM. Also, the GI50 in [8] is 0.167 µM. In addition, the TGI in experiment [1] worked out at 0.575 µM; in experiment [9], 0.718 µM; in experiment [3] it was 0.368 µM; in experiment [4] it was 0.523 µM; in experiment [5], 0.421 µM; in experiment [7], 0.409 µM. In addition, in experiment [8], the TGI stood at 0.339 µM.

Turning to `N#CC12CCC1C1CCCCC12N1CCSCC1` (stereo unspecified), the TGI in [2] is more than 10 µM; in [9], more than 100 µM; in experiment [3], more than 100 µM; in [4], more than 100 µM; in [5] it was more than 100 µM; in experiment [8], more than 100 µM.

For `COc1cc(OC)c(C(=O)c2cccs2)cc1N`, the TGI in experiment [1], in experiment [2], in experiment [9], in experiment [3], in [4] and in experiment [5] was more than 100 µM throughout. In addition, the TGI in experiment [7] and in experiment [8] was more than 100 µM in each case.

Turning to `N#CC(C(=O)C(=O)Nc1ccccc1)c1ccccc1` (stereo unspecified), the TGI in experiment [1], in experiment [2], in experiment [9], in [3], in experiment [4] and in [5] was more than 100 µM each time. In addition, the TGI in experiment [6] and in experiment [8] was more than 100 µM each time.

In the case of `O=c1c2ccc(S(=O)(=O)c3ccc4c(=O)n5c6ccccc6nc5c5cccc3c45)c3cccc(c32)c2nc3ccccc3n12`, the TGI in experiment [1] is more than 100 µM; in experiment [2] it was more than 100 µM; in experiment [9] it was more than 100 µM; in experiment [3], 35.5 µM; in experiment [5], more than 100 µM; in [6], more than 100 µM. In addition, the TGI in experiment [7] and in experiment [8] was more than 100 µM throughout.

Consider `Cc1n[nH]c(=S)n(C)c1=S`, for which the TGI in experiment [1], in experiment [3], in experiment [4], in [5], in experiment [6] and in experiment [8] was more than 100 µM each time.

For `COc1ccc(/C(=N\NC(=O)NN)C(c2ccc(OC)cc2)C2(O)C(=O)Nc3c(Cl)cc(Cl)cc32)cc1` (stereo unspecified), the TGI in [1], in experiment [2], in experiment [3], in experiment [5] and in experiment [7] was more than 100 µM in each case.

Regarding `CCCCCOCC(O)CO` (stereo unspecified), the TGI in experiment [1], in experiment [2], in experiment [9], in experiment [3], in experiment [5] and in experiment [7] was more than 100 µM in each case. This molecule yielded a TGI in [8] of more than 100 µM.
